Results on one molecule are retold here after PMC9621195 (Journal for Immunotherapy of Cancer, 2022).

Structures are written as SMILES. pKd: −log10 of the molar value.

In general, pKd refers to −log10 of the Kd, conventionally taken in molar units. High values mean a small Kd, low ones a large Kd.

The target in this assay is cathepsin B (Homo sapiens, UniProt P07858). The experiment in a line: microscale thermophoresis with CTSB-WT-EGFP in HCT-116 cell lysate. Type of assay: binding.

`CC(C)(O)[C@@H]1CC[C@](C)([C@H]2[C@@H](O)C[C@@]3(C)[C@@H]4C[C@H](O)[C@H]5C(C)(C)[C@@H](O)CC[C@@]56C[C@@]46CC[C@]23C)O1` [CAG, Cycloastragenol]: the pKd was 7.58.
